Reference: patent publication US20220016115A1, “USP19 INHIBITORS FOR USE IN THERAPY” (ALMAC DISCOVERY LIMITED, priority 2018, published 2022)

Target: T1, USP19 (Homo sapiens, UniProt O94966)
T1 sequence (O94966 1-1318): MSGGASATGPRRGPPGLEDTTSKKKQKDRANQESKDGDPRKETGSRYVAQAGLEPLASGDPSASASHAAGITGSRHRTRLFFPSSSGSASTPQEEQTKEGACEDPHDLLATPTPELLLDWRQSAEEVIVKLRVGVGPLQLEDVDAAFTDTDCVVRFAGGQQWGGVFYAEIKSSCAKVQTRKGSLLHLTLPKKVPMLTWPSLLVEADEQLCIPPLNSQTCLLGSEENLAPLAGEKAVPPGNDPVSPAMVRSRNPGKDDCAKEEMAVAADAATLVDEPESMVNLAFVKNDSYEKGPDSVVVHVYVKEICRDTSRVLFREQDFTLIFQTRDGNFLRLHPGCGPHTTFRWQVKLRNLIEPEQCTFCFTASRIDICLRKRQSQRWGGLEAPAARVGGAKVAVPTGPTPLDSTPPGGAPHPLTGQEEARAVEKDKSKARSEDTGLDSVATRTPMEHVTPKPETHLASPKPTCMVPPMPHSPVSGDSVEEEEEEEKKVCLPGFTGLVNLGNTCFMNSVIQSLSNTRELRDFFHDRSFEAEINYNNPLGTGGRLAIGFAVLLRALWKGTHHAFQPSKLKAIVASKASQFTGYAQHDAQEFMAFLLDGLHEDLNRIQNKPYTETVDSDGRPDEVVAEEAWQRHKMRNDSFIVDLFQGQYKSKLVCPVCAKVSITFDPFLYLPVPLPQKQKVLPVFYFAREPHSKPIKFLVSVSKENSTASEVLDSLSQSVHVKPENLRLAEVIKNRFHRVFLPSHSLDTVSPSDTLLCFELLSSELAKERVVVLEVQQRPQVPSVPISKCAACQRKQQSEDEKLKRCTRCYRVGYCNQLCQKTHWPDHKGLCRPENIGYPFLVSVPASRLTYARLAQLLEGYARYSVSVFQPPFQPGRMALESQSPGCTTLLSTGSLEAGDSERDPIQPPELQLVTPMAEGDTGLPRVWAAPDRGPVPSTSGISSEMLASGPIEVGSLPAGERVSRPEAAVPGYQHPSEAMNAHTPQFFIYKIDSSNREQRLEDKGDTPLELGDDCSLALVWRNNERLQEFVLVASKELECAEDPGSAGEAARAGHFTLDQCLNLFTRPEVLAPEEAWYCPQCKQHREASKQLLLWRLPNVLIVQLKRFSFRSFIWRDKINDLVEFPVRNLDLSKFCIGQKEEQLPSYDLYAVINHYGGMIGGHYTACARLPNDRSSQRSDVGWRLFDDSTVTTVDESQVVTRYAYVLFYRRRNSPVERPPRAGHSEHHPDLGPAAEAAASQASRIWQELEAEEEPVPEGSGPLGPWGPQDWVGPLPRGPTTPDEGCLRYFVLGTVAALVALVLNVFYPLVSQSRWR
Test: USP19 fluorescence polarisation (FP) homogeneous assay
Type: biochemical
Set-up: Full-length USP19 was purchased from Boston Biochem (E-576); purchased Boston Biochem E-576
Settings: Ubiquitin-Lys-TAMRA substrate, full-length USP19 2.5 nM, average of at least two duplicate experiments
In short: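 Inhibitors serially diluted in buffer (200 μM to 2 μM, 8-18 points) and preincubated 30 min at RT before starting with 500 nM Ub substrate.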

C[C@H](CC1CCC1)C(=O)N1CC[C@@](O)(Cn2cc(C(=O)N(C)C)c(-c3ccccc3)cc2=O)C2(CCCC2)C1 [Example 214, 1-(((S)-7-((R)-3-Cyclobutyl-2-methylpropanoyl)-10-hydroxy-7-azaspiro[4.5]decan-10-yl)methyl)-N,N-dimethyl-6-oxo-4-phenyl-1,6-dihydropyridine-3-carboxamide]
IC50: < 500 nM

C[C@H](CC1CCCCC1)C(=O)N1CCC(O)(Cn2cnc(-c3ccccc3F)cc2=O)C2(CCC2)C1 (mixture of isomers) [Example 51, 3-(((R)-6-((R)-3-Cyclohexyl-2-methylpropanoyl)-9-hydroxy-6-azaspiro[3.5]nonan-9-yl)methyl)-6-(2-fluorophenyl)pyrimidin-4(3H)-one and 3-(((S)-6-((R)-3-Cyclohexyl-2-methylpropanoyl)-9-hydroxy-6-azaspiro[3.5]nonan-9-yl)methyl)-6-(2-fluorophenyl)pyrimidin-4(3H)-one]
IC50: 500 to 5000 nM
